Results from article PMC7866395, “A Pipeline towards the Biochemical Characterization of the Arabidopsis GT14 Family” (International Journal of Molecular Sciences, 2021).

Assays:
Format in all cases: biochemical
AT4G27480 (248) = biological target: T1, AT4G27480 (248) (Arabidopsis thaliana, UniProt F4JIW2); experiment: glucuronosyltransferase assay, RP-HPLC with fluorescence detection; details: donor 0.4 mM; acceptor 5 uM β-Gal-NBD, β-1,6-Gal4-AA or β-1,3-Gal5-AA; 25 °C, 2 h; microsomes
T1 construct: full-length CDS, C-terminal YFP and HA tags (pEarleyGate 101), transient expression in Nicotiana benthamiana, Triton X-100 treated microsomal membranes, about 75 kDa fusion
T1 sequence (F4JIW2 1-421): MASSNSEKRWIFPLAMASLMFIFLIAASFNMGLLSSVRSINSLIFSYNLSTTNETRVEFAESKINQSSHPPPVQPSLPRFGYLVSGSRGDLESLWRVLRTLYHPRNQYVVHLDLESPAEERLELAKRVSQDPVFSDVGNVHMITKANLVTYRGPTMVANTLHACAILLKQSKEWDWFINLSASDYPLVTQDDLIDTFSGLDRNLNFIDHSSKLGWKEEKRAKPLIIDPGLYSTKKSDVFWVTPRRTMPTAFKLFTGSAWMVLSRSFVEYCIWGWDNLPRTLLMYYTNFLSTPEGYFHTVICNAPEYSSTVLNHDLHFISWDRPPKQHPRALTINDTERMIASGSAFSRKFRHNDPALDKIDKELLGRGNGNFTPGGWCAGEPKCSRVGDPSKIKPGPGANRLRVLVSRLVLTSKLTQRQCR

[1] = biological target: T2, AT5G15050 (249, AtGlcAT14B) (Arabidopsis thaliana, UniProt Q9LFQ0); experiment: as above; details: donor 0.4 mM; acceptor 5 uM β-Gal-NBD, β-1,6-Gal4-AA or β-1,3-Gal5-AA; 25 °C, 2 h; microsomes
T2 construct: gene GLCAT14B; full-length CDS, C-terminal YFP and HA tags (pEarleyGate 101), transient expression in Nicotiana benthamiana, Triton X-100 treated microsomal membranes, about 75 kDa fusion
T2 sequence (Q9LFQ0 1-434): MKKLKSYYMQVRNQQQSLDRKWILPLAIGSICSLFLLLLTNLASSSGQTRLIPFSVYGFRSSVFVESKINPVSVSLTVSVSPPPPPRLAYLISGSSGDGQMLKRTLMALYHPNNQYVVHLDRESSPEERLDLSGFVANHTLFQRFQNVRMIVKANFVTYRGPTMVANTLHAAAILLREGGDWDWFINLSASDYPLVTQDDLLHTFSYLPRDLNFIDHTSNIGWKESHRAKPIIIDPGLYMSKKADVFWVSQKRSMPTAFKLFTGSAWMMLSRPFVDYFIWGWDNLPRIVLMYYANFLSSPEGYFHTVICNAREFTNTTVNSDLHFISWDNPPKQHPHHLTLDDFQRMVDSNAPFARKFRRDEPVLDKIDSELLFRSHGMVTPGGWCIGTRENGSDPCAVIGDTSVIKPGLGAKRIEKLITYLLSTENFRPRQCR

[2] = biological target: T3, AT3G15350 (245, AtGlcAT14E) (Arabidopsis thaliana, UniProt Q9LE60); experiment: glucuronosyltransferase assay, RP-HPLC fluorescence and LC-ESI-MS of products; details: donor 0.4 mM; acceptor 5 uM β-1,3-Gal5-AA; 25 °C, 2 h; microsomes
T3 construct: full-length CDS, C-terminal YFP and HA tags (pEarleyGate 101), transient expression in Nicotiana benthamiana, Triton X-100 treated microsomal membranes, about 75 kDa fusion
T3 sequence (Q9LE60 1-424): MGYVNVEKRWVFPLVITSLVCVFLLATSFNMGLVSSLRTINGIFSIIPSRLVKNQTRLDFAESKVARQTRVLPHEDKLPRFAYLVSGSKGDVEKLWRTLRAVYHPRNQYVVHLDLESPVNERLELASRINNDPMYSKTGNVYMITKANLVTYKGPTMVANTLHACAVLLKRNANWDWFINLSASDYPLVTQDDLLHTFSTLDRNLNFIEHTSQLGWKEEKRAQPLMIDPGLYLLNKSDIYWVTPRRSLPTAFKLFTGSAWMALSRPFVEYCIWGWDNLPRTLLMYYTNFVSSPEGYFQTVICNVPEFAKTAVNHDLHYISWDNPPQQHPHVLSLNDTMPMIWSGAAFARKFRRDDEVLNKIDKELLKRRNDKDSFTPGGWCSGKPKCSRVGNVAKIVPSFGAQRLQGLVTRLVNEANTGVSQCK

**Q.** O=C(O)[C@H]1O[C@H](OP(=O)(O)OP(=O)(O)OC[C@H]2O[C@@H](n3ccc(=O)[nH]c3=O)[C@H](O)[C@@H]2O)[C@H](O)[C@@H](O)[C@@H]1O [UDP-GlcA] was tested. Which “glucuronosyltransferase assay, RP-HPLC with fluorescence detection” value (AT4G27480 (248)) did it give?
**A.** Its value is “AT4G27480 show the GlcAT activity using the three different acceptors”.

**Q.** What about the “glucuronosyltransferase assay, RP-HPLC with fluorescence detection” value [1] of the same compound?
**A.** The value was “This result confirms that AtGlcAT14B and AtGlcAT14E have GlcAT activity”.

**Q.** And the “glucuronosyltransferase assay, RP-HPLC fluorescence and LC-ESI-MS of products” value [2]?
**A.** The value was “However, only UDP-GlcA was an active substrate donor”.
